Reference: PMC5759193, “The tankyrase inhibitor G007-LK inhibits small intestine LGR5^+ stem cell proliferation without altering tissue morphology” (Biological Research, 2018)
Values joined by “and” are separate entries in the source; they are usually repeats but may differ in a detail not shown here. Equal values may be shown once. Read-outs that look alike come from different tables or passages of the source.

Tests used:
[1] = Pharmacokinetic analysis in plasma after G007-LK enriched chow; assay type: in vivo, ICR mice; settings: for G007-LK Concentration in plasma, Mean: n=5; for Cmax: 0 h
Experimental: To address the pharmacokinetic properties of the tankyrase inhibitor G007-LK, ICR mice (n = 25) were treated for 3 days with a G007-LK-enriched diet, containing 100 mg G007-LK/kg chow. […] Pharmacokinetic parameters of G007-LK following administration of enriched diet for three consecutive days are listed in Table 1.

[2] = test system: LGR5^+ intestinal stem cells; test: Lineage tracing from LGR5^+ intestinal stem cells in duodenum (confocal microscopy, GFP IHC)
Experimental: Pieces of duodenum from mice that had undergone induced lineage tracing were fixed for 30 min in 4% paraformaldehyde (PFA) at room temperature, rinsed in PBS and immediately prepared for confocal microscopic analyses. Under a stereo microscope one row of intestinal villi was sectioned from the duodenal wall with a scalpel, rinsed in dH2O and embedded in Mowiol 4-88 (Sigma-Aldrich). The samples were examined with a Zeiss LSM 780 confocal microscope (Carl Zeiss MicroImaging GmbH) equipped with a multiline argon laser (458/488/514 nm), a 10 mW DPSS laser (561 nm), a 405-30 CW laser diode (405 nm), and a helium–neon (HeNe) laser (633 nm). The objective used was a Zeiss Plan-Apochromat 20×/0.8 DIC II. To calculate the numbers and volumes of the traced cells, confocal Z-stacks were analysed with Imaris 7.7.2 (Bitplane AG). A similar threshold for the segmentation of the traced cells was used in all Z-stacks examined. Image visualisations were performed with the basic Zeiss LSM 780 ZEN 2010 software, Photoshop CS4 (Adobe), and Imaris 7.7.2.
(§1) Mouse tissue was fixed overnight in 4% PFA, routinely processed and paraffin embedded. The paraffin-embedded tissue was sectioned at 3–4.5 μm. IHC staining was performed as previously described, with primary antibodies against β-catenin, green fluorescent protein (GFP), Lysozyme and Chromogranin A (rabbit monoclonal anti-β-catenin, Abcam ab32572; rabbit monoclonal anti-GFP, Cell Signaling Technology #2956; rabbit monoclonal anti-Lysozyme, Abcam ab108508; rabbit polyclonal anti-Chromogranin A, Abcam ab15160). For quantitative analyses of the IHC-stained tissue sections, the slides were scanned using the Hamamatsu Digital Slide Scanner NanoZoomer 2.0-HT C9600-13 and the number of positive and negative cells in up to 10 crypts or villi from each animal was counted manually. Periodic acid-Schiff (PAS) and Alcian blue staining was performed at the Department of Pathology, Oslo University Hospital, using standard protocols.

canonical WNT signalling = test: β-catenin IHC of duodenal crypt base cells; assay type: in vivo, mice; settings: gavage 10 mg/kg n = 2 and 50 mg/kg n = 1
Experimental: as §1
To verify that the administered doses of the tankyrase inhibitor had the expected effect on canonical WNT signalling, we stained duodenal tissue sections with a β-catenin-specific antibody. Nuclear localisation of β-catenin implied active canonical WNT signalling in vehicle (n = 3), (Fig. 4a) and G007-LK-treated (gavage 10 mg/kg, n = 2 and 50 mg/kg, n = 1) mice (Fig. 4b).

duodenal crypt cells = test: BrdU labelling of duodenal crypt cells; assay type: in vivo, mice; settings: 100 mg/kg chow
Experimental: Slides with tissue sections were deparaffinised in xylene and re-hydrated through a graded series of ethanol. Heat-antigen retrieval was performed in 10 mM sodium-citrate buffer supplemented with 0.05% Tween 20 in a pressure cooker for 3 min and the slides were slowly cooled down. Slides were rinsed in washing buffer (PBS supplemented with 0.1% Tween), incubated with blocking buffer (PBS supplemented with 5% goat serum and 5% bovine serum albumin (BSA)) for 30 min at room temperature and rinsed in washing buffer. Primary antibodies (mouse monoclonal anti-BrdU, ThermoFisher #B35128; monoclonal anti-GFP, Cell Signalling #2956) diluted in blocking buffer were applied and incubated over night at 4 °C. […]
Mice were treated with BrdU (100 mg/kg body mass) 1 h before being sacrificed or with daily 1 mg BrdU injections for 7 days prior to sacrifice. […] BrdU-labelled cells were detected using a BrdU IHC kit (Abcam #125306) according to the manufacturer’s protocol, or using a monoclonal anti-BrdU antibody (ThermoFisher #B35128) and a Mouse-on-Mouse kit (Vector Laboratories #BMK-2202) according to the IHC protocol outlined above. The fraction of BrdU-labelled crypt cells was calculated.

duodenum = test: Duodenal morphology and cellular composition (H&E, PAS, Alcian blue, Lysozyme, Chromogranin A); assay type: in vivo, mice
Experimental: as §1
Similar data for the goblet cells were obtained by Alcian blue staining of acidic mucin (Additional file 5: Figure S4A–C).

[3] = cited from earlier work
[4] = Tolerance: body mass, food consumption, clinical observations
Experimental: Medicilon Preclinical Research (Shanghai) LCC performed the pharmacokinetic studies; in brief, ICR mice (n = 25) from Sion-British SIPPR/BK Lab Animal Ltd, Shanghai were fed 100 mg G007-LK/kg chow enriched diet ad libitum for 3 consecutive days, body mass and food consumption was measured daily.
The body mass of the G007-LK-treated mice and the amount of consumed chow was measured 5 days per week. […] The mice were treated with G007-LK for 9 days by oral gavage or 21 days with the enriched diet.
The tolerance of G007-LK treatment in the experimental mice used in this study was further evaluated by short-term oral gavage treatment daily for 9 days with 10 or 50 mg G007-LK/kg body mass (Fig. 1d). […] For long-term treatment, mice were fed G007-LK-enriched diets, 100 or 1000 mg G007-LK/kg chow for up to 3 weeks (Fig. 1f).

[5] = ICR mice, female, diet containing G007-LK 100 mg/kg chow 3 days, plasma
[6] = 6 months, 158 mg/kg chow, high fat-based diet
[7] = ICR mice, 100 mg G007-LK/kg chow, 3 days

Structure (SMILES): CS(=O)(=O)c1ccc(-c2nnc(/C=C/c3nnc(-c4ccc(C#N)cc4)o3)n2-c2ccccc2Cl)nc1 [G007-LK]
- G007-LK Concentration in plasma, single animals G1-1 to G1-5 ([1]; 0 h after diet removal): 773,96 ng/mL and 795,28 ng/mL and 756,04 ng/mL and 696,04 ng/mL and 791,2 ng/mL
- G007-LK Concentration in plasma, Mean ([1]; 0 h after diet removal): 762,5 ng/mL
- G007-LK Concentration in plasma, single animals G1-1 to G1-5 ([1]; 1 h after diet removal): 676,41 ng/mL and 696,8 ng/mL and 608,34 ng/mL and 669,24 ng/mL and 689,94 ng/mL
- G007-LK Concentration in plasma, Mean ([1]; 1 h after diet removal): 668,15 ng/mL
- G007-LK Concentration in plasma, single animals G1-1 to G1-5 ([1]; 2 h after diet removal): 639,46 ng/mL and 649,54 ng/mL and 610,19 ng/mL and 589,18 ng/mL and 567,65 ng/mL
- G007-LK Concentration in plasma, Mean ([1]; 2 h after diet removal): 611,2 ng/mL
- G007-LK Concentration in plasma, single animals G1-1 to G1-5 ([1]; 4 h after diet removal): 335,27 ng/mL and 378,3 ng/mL and 216,65 ng/mL and 474,86 ng/mL and 316,33 ng/mL
- G007-LK Concentration in plasma, Mean ([1]; 4 h after diet removal): 344,28 ng/mL
- G007-LK Concentration in plasma, single animals G1-1 to G1-5 ([1]; 12 h after diet removal): 52,75 ng/mL and 105,7 ng/mL and 112,65 ng/mL and 158,02 ng/mL and 111,12 ng/mL
- G007-LK Concentration in plasma, Mean ([1]; 12 h after diet removal): 108,05 ng/mL
- Cmax ([1]; ICR mice, diet containing G007-LK 100 mg/kg chow 3 days, plasma, read-out: Cmax): 1440 ± 80 nM
- AUC(0-t) [1, 5]: 4119.80 ng·h/mL
- AUC(0-∞) [1, 5]: 4770.32 ng·h/mL
- Cmax [1, 5]: 762.50 ng/mL
- t1/2 ([1]; ICR mice, female, diet containing G007-LK 100 mg/kg chow ad libitum 3 days, plasma, non-compartmental): 4.17 h
- F^a bioavailability ([1]; enriched chow vs IV data of ref 26, calculated from AUC(0-t)): 22.22%
- F^b bioavailability ([1]; enriched chow vs IV data of ref 26, calculated from AUC(0-∞)): 20.69%
- lineage tracing after stop of treatment (G007-LK-stop, reversibility) ([2]; 100 mg/kg chow 2 weeks, G007-LK-free diet 2 days before tamoxifen, tracing 7 days): presence of lineage traced cells throughout the entire length of the villi
- average ratio of crypts with GFP positive cells versus total counted crypts ([2]; GFP IHC, G007-LK treated mice n = 10 (control 0.51)): 0.39
- reduction of ratio of crypts with GFP positive cells versus total counted crypts, compared with control ([2]; GFP IHC, n = 10 treated, p = 0.05): 23%
- location of lineage traced cells when treatment starts after tamoxifen ([2]; Lgr5-EGFP-CreERT2;R26R-tdTomato mice, 100 mg/kg chow 6 days, started 24–36 h after tamoxifen): lineage traced cells were detected in the middle of the duodenal villi
- number of villi with traced cells vs control ([2]; duodenum): significantly (t test, p < 0.05) reduced
- number of lineage traced cells vs control ([2]; image analysis, duodenum): significant (t test, p < 0.05) reduction
- volume of lineage traced cells vs control ([2]; image analysis, duodenum): significant (t test, p < 0.05) reduction
- lineage tracing from LGR5^+ stem cells ([2]; long-term, 100 mg/kg chow, duodenum): markedly reduced lineage tracing
- fraction of β-catenin-positive nuclei in crypt base cells vs control (canonical WNT signalling): significant (t test, p < 0.05) reduction
- BrdU-labelled cells after daily BrdU for 7 days (duodenal crypt cells; n = 3): BrdU-labelled cells were observed at the tips of the villi
- ratio of BrdU positive crypt cells (duodenal crypt cells; n = 7, BrdU 1 h (control 0.28), p < 0.05): 0.14
- gross morphology of the duodenum (crypts and villi), H&E (duodenum; 9 days gavage 10 or 50 mg/kg, 21 days enriched diet 100 or 1000 mg/kg chow): maintained
- crypt abscesses (duodenum; distal duodenum and ileum): occasional crypt abscesses were observed
- morphology of epithelial cell layer (duodenum; distal duodenum and ileum): did not induce major morphological changes
- distribution of Paneth cells in crypt base (Lysozyme IHC) vs control (duodenum; duodenum): equal distribution pattern
- distribution of enteroendocrine cells (Chromogranin A IHC) vs control (duodenum; duodenum): comparable distribution patterns
- number of PAS stained goblet cells vs vehicle (duodenum; duodenum, gavage 50 mg/kg): no significant difference
- crypt:villus ratios, crypt duplication rates or size, goblet cell number or size, crypts per villus base (duodenum; proximal duodenum, gavage treated vs control): no statistically significant (t test, p > 0.05) changes
- glucose metabolism [3, 6]: improved glucose tolerance and insulin sensitivity
- toxic effects [3, 6]: did not lead to visible toxic effects
- small intestine toxicity ([3]; intermediate and high doses, up to 100 mg/kg body mass once daily 14–20 days, i.p. or orally): partially reversible focal necrosis and inflammation in the small intestine
- changes in body mass [4, 7]: minor, not statistically significant
- food consumption [4, 7]: stable day 2 and 3 of the G007-LK enriched chow administration period, but statistically significant lower (t test, p < 0.05) the first day
- macroscopic phenotypes [4, 7]: No obvious macroscopic abnormal phenotypes were observed
- tolerability ([4]; daily doses up to approximately 200 mg/kg body mass, gavage or enriched diet): well tolerated
